According to paper PMC6037002, “Drug targeting to decrease cardiotoxicity – determination of the cytotoxic effect of GnRH-based conjugates containing doxorubicin, daunorubicin and methotrexate on human cardiomyocytes and endothelial cells” (Beilstein Journal of Organic Chemistry, 2018):
Where two headings read alike, the source gives them in different places.

Legend:
[1] = system: human umbilical vein endothelial cells (HUVEC); assay: Impedimetric measurement (xCELLigence SP), delta slope, HUVEC; settings: HUVEC, three parallels; for delta slope (DS), short-term: 0–2 h; for delta slope (DS), long-term: 0–72 h
[2] = system: MCF-7 human breast adenocarcinoma cells; settings: MTT assay; cited from earlier work
Text: (§1) Table 1 Comparative study of cytotoxic effects and cardiotoxicity elicited by GnRH-based antitumor compounds (1–15) and reference substances (AN-152, Dox, Dau, Mtx). IC50 values show antitumor cytotoxic characteristics of the conjugates in human breast cancer (MCF-7), human colorectal adenocarcinoma (HT-29) and human acute monocytic leukemia (MM6) derived cell lines as representative tumor cells.

[3] = system: HT-29 human colon adenocarcinoma cells; settings: MTT assay; cited from earlier work
Text: as §1

[4] = system: human acute monocytic leukemia (MonoMac6) cells; settings: cited from earlier work
Text: as §1

[5] = system: primary human cardiac myocytes (HCM); settings: HCM, three parallels; for delta slope (DS), short-term: 0–2 h; for delta slope (DS), long-term: 0–72 h

COc1cccc2c1C(=O)c1c(O)c3c(c(O)c1C2=O)C[C@@](O)(C(C)=O)C[C@@H]3O[C@H]1C[C@H](N)[C@H](O)[C@H](C)O1 [daunorubicin]
delta slope (DS), short-term ([1]; Table S1a, 10^-6 mol/L): 0.047 | delta slope (DS), short-term ([1]; Table S1a, 10^-7 mol/L): 0.055 | delta slope (DS), short-term ([1]; Table S1a, 10^-8 mol/L): 0.018 | delta slope (DS), short-term ([1]; Table S1a, 10^-9 mol/L): -0.008 | delta slope (DS), short-term ([1]; Table S1a, 10^-10 mol/L): -0.008 | delta slope (DS), short-term ([1]; Table S1a, 10^-11 mol/L): 0.008 | delta slope (DS), short-term ([1]; Table S1a, 10^-12 mol/L): -0.005 | delta slope (DS), long-term ([1]; Table S1a, 10^-6 mol/L): −0.019 | delta slope (DS), long-term ([1]; Table S1a, 10^-6 mol/L, listed as Daunorubicin): -0.019 | delta slope (DS), long-term ([1]; Table S1a, 10^-7 mol/L): −0.007 | delta slope (DS), long-term ([1]; Table S1a, 10^-7 mol/L, listed as Daunorubicin): -0.007 | delta slope (DS), long-term ([1]; Table S1a, 10^-8 mol/L): -0.001 | delta slope (DS), long-term ([1]; Table S1a, 10^-9 mol/L): -0.00113 | delta slope (DS), long-term ([1]; Table S1a, 10^-10 mol/L): 0.001 | delta slope (DS), long-term ([1]; Table S1a, 10^-11 mol/L): 0.002 | delta slope (DS), long-term ([1]; Table S1a, 10^-12 mol/L): -0.001 | delta slope (DS), short-term ([1]; Table S3a, 10^-6 mol/L): 0.003 | delta slope (DS), short-term ([1]; Table S3a, 10^-7 mol/L): -0.002 | delta slope (DS), short-term ([1]; Table S3a, 10^-8 mol/L): -0.008 | delta slope (DS), long-term ([1]; Table S3a, 10^-6 mol/L): -0.010 | delta slope (DS), long-term ([1]; Table S3a, 10^-7 mol/L): 0.001 | delta slope (DS), short-term ([1]; Table S4a, 10^-6 mol/L): 0.009 | delta slope (DS), short-term ([1]; Table S4a, 10^-7 mol/L): 0.016 | delta slope (DS), short-term ([1]; Table S4a, 10^-8 mol/L): 0.005 | delta slope (DS), long-term ([1]; Table S4a, 10^-6 mol/L): -0.058 | delta slope (DS), long-term ([1]; Table S4a, 10^-7 mol/L): 0.004 | delta slope (DS), long-term ([1]; Table S4a, 10^-8 mol/L): 0.006 | IC50 [2]: 400 ± 100 nM | IC50 [3]: 300 ± 200 nM | IC50 [4]: 0.08 ± 0.1 nM | delta slope (DS), short-term ([5]; Table S1b, 10^-6 mol/L): 0.031 | delta slope (DS), short-term ([5]; Table S1b, 10^-7 mol/L): -0.001 | delta slope (DS), short-term ([5]; Table S1b, 10^-8 mol/L): 0.001 | delta slope (DS), short-term ([5]; Table S1b, 10^-9 mol/L): -0.001 | delta slope (DS), short-term ([5]; Table S1b, 10^-10 mol/L): -0.001 | delta slope (DS), short-term ([5]; Table S1b, 10^-11 mol/L): -0.001 | delta slope (DS), short-term ([5]; Table S1b, 10^-12 mol/L): -0.001 | delta slope (DS), long-term ([5]; Table S1b, 10^-6 mol/L): −0.019 | delta slope (DS), long-term ([5]; Table S1b, 10^-6 mol/L, listed as Daunorubicin): -0.019 | delta slope (DS), long-term ([5]; Table S1b, 10^-7 mol/L): −0.007 | delta slope (DS), long-term ([5]; Table S1b, 10^-7 mol/L, listed as Daunorubicin): -0.007 | delta slope (DS), long-term ([5]; Table S1b, 10^-8 mol/L): -0.001 | delta slope (DS), long-term ([5]; Table S1b, 10^-9 mol/L): -0.001 | delta slope (DS), long-term ([5]; Table S1b, 10^-10 mol/L): -0.001 | delta slope (DS), long-term ([5]; Table S1b, 10^-11 mol/L): -0.001 | delta slope (DS), long-term ([5]; Table S1b, 10^-12 mol/L): -0.001 | delta slope (DS), short-term ([5]; Table S3b, 10^-6 mol/L): 0.028 | delta slope (DS), short-term ([5]; Table S3b, 10^-8 mol/L): -0.001 | delta slope (DS), long-term ([5]; Table S3b, 10^-6 mol/L): -0.021 | delta slope (DS), long-term ([5]; Table S3b, 10^-7 mol/L): -0.006 | delta slope (DS), long-term ([5]; Table S3b, 10^-8 mol/L): -0.001 | delta slope (DS), short-term ([5]; Table S4b, 10^-6 mol/L): 0.030 | delta slope (DS), short-term ([5]; Table S4b, 10^-7 mol/L): -0.009 | delta slope (DS), short-term ([5]; Table S4b, 10^-8 mol/L): -0.001 | delta slope (DS), long-term ([5]; Table S4b, 10^-6 mol/L): -0.024 | delta slope (DS), long-term ([5]; Table S4b, 10^-7 mol/L): -0.009 | delta slope (DS), long-term ([5]; Table S4b, 10^-8 mol/L): -0.001 | delta slope (DS), short-term ([5]; Table S5b, 10^-8 mol/L): -0.001 | delta slope (DS), long-term ([5]; Table S5b, 10^-8 mol/L): -0.001
